SMILES	logP
CN(C)C(=O)c1ccccn1	-0.45
CCOc1cnccn1	1.28
N#Cc1cnccn1	-0.01
CC(=O)c1cnccn1	0.2
CNc1cnccn1	0.56
COC(=O)c1cnccn1	-0.23
CNc1ccccn1	1.12
CN(C)c1cnccn1	0.93
Clc1cnccn1	0.7
CCOC(=O)c1cnccn1	0.28
CCc1cnccn1	0.69
COc1ccccn1	1.34
CCCOc1cnccn1	1.84
CC(=O)Nc1cnccn1	-0.03
CN(C)c1ccccn1	1.65
CCOc1ccccn1	1.81
CCCOc1ccccn1	2.38
CSc1cnccn1	1.17
CSc1ccccn1	1.71
Fc1cnccn1	0.29
Fc1ccccn1	0.84
CN(C)C(=O)c1cnccn1	-0.8
COc1cnccn1	0.73

From the OPERA property sets (Mansouri et al. 2018)
